Test results as given in publication PMC12541610 (Acta Pharmaceutica Sinica. B, 2025).

Target: ATP synthase F1 subunit alpha (ATP5A1) (Mus musculus, UniProt Q03265)
Assay: intrinsic fluorescence titration of purified protein
Type: binding

Chain of ATP synthase F1 subunit alpha (ATP5A1) (Q03265 whole entry): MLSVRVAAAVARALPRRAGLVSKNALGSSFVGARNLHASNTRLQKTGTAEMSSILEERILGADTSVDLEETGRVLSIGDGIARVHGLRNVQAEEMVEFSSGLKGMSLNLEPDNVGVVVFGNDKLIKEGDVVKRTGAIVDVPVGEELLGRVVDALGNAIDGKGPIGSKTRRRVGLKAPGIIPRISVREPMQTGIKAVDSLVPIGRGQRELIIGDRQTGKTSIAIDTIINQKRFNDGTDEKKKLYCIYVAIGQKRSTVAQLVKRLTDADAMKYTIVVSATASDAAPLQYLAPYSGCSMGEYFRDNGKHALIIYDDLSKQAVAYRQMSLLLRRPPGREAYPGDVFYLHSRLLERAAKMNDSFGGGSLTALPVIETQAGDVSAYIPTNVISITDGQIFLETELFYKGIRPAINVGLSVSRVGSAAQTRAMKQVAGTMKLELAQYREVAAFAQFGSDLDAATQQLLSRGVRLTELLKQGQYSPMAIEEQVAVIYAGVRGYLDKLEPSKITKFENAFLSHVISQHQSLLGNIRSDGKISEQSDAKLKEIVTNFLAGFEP

## C=C(C)[C@@H]1CCC(C)=C[C@H]1c1c(O)cc(CCCCC)cc1O [Cannabidiol]
  Kd: 4.9 ± 1.2 µM
